# Assay results taken from patent publication US11319289B2, “5-hydroxy pyridine-based compound for use as P2X1 and P2X3 receptor antagonist and pharmaceutical composition comprising same” (GWANGJU INSTITUTE OF SCIENCE AND TECHNOLOGY, priority 2017, dated 2022).
# Read-outs that look alike come from different tables or passages of the source.
# Legend:
# [1] = Plasma and brain concentrations after intravenous administration of Compound 28 in rats; assay type: in vivo, SD rats; conditions: for concentration in the brain tissue: 0.5 hour after intravenous administration of Compound 28; for Kp / concentration at 0.5 h / concentration at 2 h / concentration at 4 h / concentration at 8 h / Kp at 0.5 h / Kp at 2 h / Kp at 4 h / Kp at 8 h: male, rat, iv; for Kp: SD, 5 mg/kg, after i.v. Compound 28, over the time points of Table 6, read-out: brain to plasma ratio; for Kp / Kp at 0.5 h / Kp at 2 h / Kp at 4 h / Kp at 8 h: brain/plasma; for concentration at 0.5 h / Kp at 0.5 h: 0.5 hr after i.v. Compound 28 5 mg/kg; for concentration at 0.5 h / concentration at 2 h / concentration at 4 h / concentration at 8 h / Kp at 0.5 h / Kp at 2 h / Kp at 4 h / Kp at 8 h: rats, mean±SD; for concentration at 2 h / Kp at 2 h: 2 hr after i.v. Compound 28 5 mg/kg; for concentration at 4 h / Kp at 4 h: 4 hr after i.v. Compound 28 5 mg/kg; for concentration at 8 h / Kp at 8 h: 8 hr after i.v. Compound 28 5 mg/kg; for Kp at 0.5 h / Kp at 2 h / Kp at 4 h / Kp at 8 h: read-out: Brain to plasma ratio
# Protocol: 7 to 8-weeks old male SD rats (weight of 250 to 290 g) were purchased from SAMTACO (Osan, […], South Korea) and given commercial rat feed (SAMTACO, Osan, Kyungki-Do, South Korea) and water to be consumed freely. 3 rats were housed per each cage at a temperature of 23±2° C. and a relative humidity of 50 to 60% under light-darkness cycles of 12±12 hours. The rats were allowed to acclimate to these conditions for at least one week before the experiments was carried out. The rats were fasted for 12 hours before the experiment and given the tap water to be consumed freely. Compound 28 was administered to the caudal vein at a dose of 5 mg/kg. At 0.5, 2, 4 and 8 hours after intravenous administration, each animal was sacrificed by cervical dislocation. Blood samples were centrifuged at 12,000 rpm for 5 minutes and immediately stored at […] until analysis. After collecting the blood samples, the brains were harvested. Then, the brain tissues were accurately weighed and homogenized with 4-fold volumes of distilled water (IKA T10 basic homogenizer, IKA, Staufen, Germany). The homogenized brain samples were centrifuged at 12,000 rpm for 10 minutes and stored at −20° C. until analysis of 500 μl aliquots. Quantification of the samples was performed using an LC-MS/MS system. The HPLC system is composed of an Agilent 1290 series rapid resolution LC system that includes a binary pump (model: G4220A), an autosampler (model: G4226A) and a column oven (model: G1316C). Mass spectrometer analysis was performed using a Sciex 4000 Q-Trap® mass spectrometer (Applied Biosystems Sciex, Toronto, Ontario, Canada) equipped with an electrospray ionization source. Data acquisition and quantification were performed using the Analyst software version 1.6 from AB SCIEX, and chromatographic separations were performed using Gemini NX C18 (2.0×100 mm, 3 μm, Phenomenex, USA). The mobile phase consisted of ACN (0.1% formic acid) and water (0.1% formic acid) (50:50, v/v). The flow rate was 0.25 mL/min, and the injection volume was set at 5 μL. Mass spectrometry was optimized and performed using a multiple reaction monitoring (MRM) scan in cation mode. The m/z transition was set from 392.1 to 360.2 for Compound 28 and from 378.2 to 360.2 for Compound 29. Preparation of plasma and brain homogenous samples includes protein precipitation with acetonitrile. In 1.5 mL polyethylene microtubes, 5 μL of IS (cimetidine, 10 μg/ml) was added to 50 μL of plasma or tissue homogenate. Subsequently, 150 μl of acetonitrile (extraction solvent) was added to the tube. After vortexing for 30 seconds, the mixture was centrifuged for 5 minutes at 12,000 rpm. 10 μl of supernatant was injected directly into the HPLC column.
# [2] = Metabolic stability in microsomes, human; assay type: in vitro ADME; conditions: 30 min
# [3] = molecular target: T1, human P2X7 receptor (hP2X7) (Homo sapiens, UniProt Q99572); test: Ethidium bromide accumulation assay in hP2X7-expressing HEK293 cells; assay type: cell-based; conditions: 10 μM compound with BzATP
# T1 construct: expressed in transfected cells
# T1 sequence (Q99572 1-595): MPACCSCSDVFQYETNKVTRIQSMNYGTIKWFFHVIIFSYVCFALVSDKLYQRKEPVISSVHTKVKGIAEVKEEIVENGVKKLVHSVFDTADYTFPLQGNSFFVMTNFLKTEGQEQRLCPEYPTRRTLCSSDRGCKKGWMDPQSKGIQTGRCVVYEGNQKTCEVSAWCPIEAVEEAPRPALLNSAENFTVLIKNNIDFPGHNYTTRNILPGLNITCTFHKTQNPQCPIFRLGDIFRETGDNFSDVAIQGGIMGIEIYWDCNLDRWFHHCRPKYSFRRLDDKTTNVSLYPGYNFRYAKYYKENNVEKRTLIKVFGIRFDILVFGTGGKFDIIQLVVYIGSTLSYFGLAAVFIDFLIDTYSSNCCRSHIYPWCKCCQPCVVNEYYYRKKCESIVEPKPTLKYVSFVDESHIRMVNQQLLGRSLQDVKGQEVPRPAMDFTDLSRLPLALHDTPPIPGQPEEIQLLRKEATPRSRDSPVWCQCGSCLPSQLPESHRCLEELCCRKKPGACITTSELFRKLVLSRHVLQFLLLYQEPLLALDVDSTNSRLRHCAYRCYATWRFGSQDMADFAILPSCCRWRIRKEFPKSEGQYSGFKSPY
# Protocol: 1-2. Ethidium Bromide Accumulation Assay in hP2X-Expressing HEK293 Cells
# HEK293 cells that are stably transfected with the human P2X7 receptor (P2X7R) were kept under a humidified atmosphere of 5% CO2 at 37° C. in DMEM supplemented with 10% (v/v) FBS, 2 mM L-glutamine and antibiotics (50 U/mL penicillin and 50 μg/ml streptomycin). BzATP-induced pore formation was measured using a fluorescence plate reader by measuring cellular absorption of ethidium in the hP2X7-expressing HEK293 cells. The hP2X7-expressing HEK293 cells were washed once with an appropriate assay buffer, and the buffer was also removed before subsequent analysis. All studies were performed at room temperature and the final assay volume was 100 μL. The cells were resuspended at 2.5×10^6 cells/mL in assay buffers consisting of 10 mM HEPES, 5 mM N-methyl-D-glucamine, 5.6 mM KCl, 10 mM D-glucose and 0.5 mM CaCl2 (pH 7.4) and supplemented with 280 mM sucrose or 140 mM NaCl.
# In order to determine the antagonistic activity of the 5-hydroxyl-pyridine derivatives of the present invention and the reference compound (AZD9056), these compounds were added to the cells at a concentration of 10 μM with BzATP without pre-incubation. The cells were incubated for 2 hours under a humidified atmosphere of 5% CO2 at 37° C., and the absorption of ethidium dye was observed by measuring fluorescence with a Bio-Tek instrument FL600 fluorescent plate reader (excitation wavelength of 530 nm and emission wavelength of 590 nm). The results are expressed as a percentage relative to the maximum cumulative amount of ethidium bromide when stimulated with BzATP alone.
# In order to investigate the structure-activity relationship (SAR) of the compounds synthesized in the present invention, the antagonistic activity was evaluated by a two-electrode voltage clamp (TEVC) assay in Xenopus oocytes expressing the recombinant mP2X1 or hP2X3, respectively. The hP2X7R antagonistic activity was assessed using an ethidium ion accumulation assay in human HEK293 cells stably expressing the recombinant human P2X7R.
# [4] = brain, read-out: Brain concentration
# [5] = plasma, read-out: Plasma concentration
brain concentration of Compound 28 relative to Compound 29 ([1]; 0.5 hour after i.v. Compound 28),concentration in the brain tissue [1],Kp [1],"concentration at 0.5 h [1, 4]","concentration at 2 h [1, 4]","concentration at 4 h [1, 4]","concentration at 8 h [1, 4]",Kp at 0.5 h [1],Kp at 2 h [1],Kp at 4 h [1],Kp at 8 h [1],"concentration at 0.5 h [1, 5]","concentration at 2 h [1, 5]","concentration at 4 h [1, 5]","concentration at 8 h [1, 5]","Metabolic stability, microsomes, Human [2]",hP2X7 % inhibition of ethidium bromide accumulation [3],Structure (SMILES)
50 times,1.11 μg/g tissue,1.13 to 1.79,1110 ± 360 ng/g,90 ± 10 ng/g,50 ± 10 ng/g,30 ± 10 ng/g,1.79 ± 0.44,1.13 ± 0.25,0.94 ± 0.21,1.19 ± 0.41,0.62 ± 0.14 µg/mL,0.08 ± 0.02 µg/mL,0.06 ± 0.01 µg/mL,0.02 ± 0.01 µg/mL,0 % remaining after 30 min,–,"CCCc1nc(Cc2cccc(Oc3ccccc3)c2)c(C)c(C(=O)OC)c1O [Compound 28, Methyl 3-hydroxy-5-methyl-6-(3-phenoxybenzyl)-2-propylisonicotinate]"
–,–,–,–,–,–,–,–,–,–,–,–,–,–,–,–,inactive,"CCCc1nc(CCc2ccc(OC)cc2)c(C(=O)O)c(C(=O)O)c1O [Compound 13d, 5-Hydroxy-2-(4-methoxyphenethyl)-6-propylpyridine-3,4-dicarboxylic acid]"
–,0.022 μg/g tissue,< 0.25,22 ± 3 ng/g,2 ± 1 ng/g,1 ng/g,1 ± 1 ng/g,0.24 ± 0.13,0.08 ± 0.02,0.05 ± 0.03,0.1 ± 0.12,0.11 ± 0.05 µg/mL,0.03 µg/mL,0.02 ± 0.01 µg/mL,0.01 µg/mL,3 % remaining after 30 min,Inactive,"CCCc1nc(Cc2cccc(Oc3ccccc3)c2)c(C)c(C(=O)O)c1O [Compound 29, 3-Hydroxy-5-methyl-6-(3-phenoxybenzyl)-2-propylisonicotinic acid]"
